Experimental data from patent publication US10960017B2, “Sorafenib or regorafenib troxacitabine phosphoramidate prodrug combination therapy for liver cancer” (priority 2016, dated 2021).
Like-named read-outs stand apart in the source and are kept apart here.

What was measured:
[1] = system: human hepatocellular carcinoma cell line Hep3B; test: Combinatorial evaluation in cell culture (Hep3B proliferation, Cell Counting Kit-8, MacSynergy II); type: cell-based; details: combination with sorafenib, Hep3B cells, 6 days incubation; for anti-proliferative interaction with sorafenib (MacSynergy II classification): 95% confidence; for log volume at 95% confidence (synergy volume calculated by MacSynergy II): log volumes >9 indicate strong synergy
Experimental: General Procedure for Combinatorial Evaluation in Cell Culture
For analysis of the human hepatocellular carcinoma cell line Hep3B, from DSMZ (ACC 93), was used. Hep3B cells were cultured as epithelial-like cells in monolayers in 90% MEM (with Earle's salts)+10% h.i. FBS+2 mM L-glutamine+50 u/ml Penicillin/0.05 mg/ml Streptomycin as culture medium. Confluent cultures were split 1:4 to 1:10 every 3-5 days using trypsin/EDTA, and re-seeded at 0.5−1×10^6 cells/80 cm^2.
Cell culture flask is washed 2 times with 5 ml PBS and PBS discarded. Add 1.5 ml of trypsin and put the flask into the incubator for 3-4 minutes. Shake the flask and add 10 ml of DMEM, 10% FCS, 50 μ/ml Penicillin/0.05 mg/ml Streptomycin without phenol red. The cells were counted using the Scepter cell counter, Hep3B cells were diluted to 20×10^3 cells/ml in complete cell medium without phenol red. 100 μl cell suspension/well was seeded in 96-well cell assay plates. Two replicate plates for each combination.
Test compounds were tested at nine concentrations, either 5 μM to 0.00076 μM or 10 μM to 0.0015 μM, in a 1:3 dilution series. Sorafenib was tested at seven concentrations, 20 μM to […], in a 1:2 dilution series. The four dilution plates were prepared with the Echo instrument.
The compound dilutions were 2 times the desired final concentrations. The volume in the dilution plates in each well are 125 μl of medium with compounds.
100 μl from the dilution plate with compounds in the different concentrations were transferred to the corresponding well of the cell assay plate with 100 μl, (200 μl/well in total volume). Incubate the plates for 6 days, at 37° C., 5% CO2.
10 μl of CCK Kit-8 was added to each well using a multi-channel pipette (submerging the tips below the surface in each well). Plates were incubated for 4 hours at 37° C., 5% CO2.
The plate was read in the spectrophotometer at a wavelength of 450 nm, with a reference filter of 650 nm. Average absorbance was >1 to <3 for the vehicle treated cell controls.
Raw data from the two plates of each combination were entered into the Mac Synergy II shareware where the combined effect was calculated and plotted in a 3D dose-response surface graph. Theoretical additive interactions are calculated from the dose response curves for each drug individually. Calculated additive surface is subtracted from experimentally determined dose-response surfaces to reveal regions of non-additive activity. The final results are given as synergy or antagonism volumes (μM^2%) according to guide lines given in the manual for MacSynergy II:
Synergy volumes: • 1. Values of synergy or antagonism under 25 μM^2% (log volumes <2) at 95% confidence should be regarded as insignificant and are probably not important. • 2. Values between 25 μM^2% and 50 μM^2% (log volumes >2 and <5) should be considered a minor but significant amount of synergy. • 3. Values between 50 μM^2% and 100 μM^2% (log volumes >5 and <9) indicate moderate synergy or antagonism. This interaction may be important in vivo. • 4. Values over 100 μM^2% (log volumes >9) indicate strong synergy and are probably important in vivo.

[2] = cited from earlier work

Row | Compound | anti-proliferative interaction with sorafenib (MacSynergy II classification) [1] | log volume at 95% confidence (synergy volume calculated by MacSynergy II) [1] | also measured
1 | CCC[C@H](C)OC(=O)[C@H](C)NP(=O)(OC[C@H]1OC[C@@H](n2ccc(N)nc2=O)O1)Oc1ccccc1 (single isomer, unassigned) [Example 1] | strong anti-proliferative synergy | 76 | 
2 | CC[C@@H](C)OC(=O)[C@H](C)NP(=O)(OC[C@H]1OC[C@@H](n2cc(F)c(N)nc2=O)O1)Oc1ccccc1 (single isomer, unassigned) [Example 2] | strong anti-proliferative synergy | 11 | 
3 | CCCC(CCC)COC(=O)[C@H](C)NP(=O)(OC[C@H]1OC[C@@H](n2ccc(N)nc2=O)O1)Oc1ccccc1 (single isomer, unassigned) [Example 3] | strong anti-proliferative synergy | 32 | 
4 | CCC[C@H](C)OC(=O)[C@H](C)NP(=O)(OC[C@H]1OC[C@@H](n2ccc(N)nc2=O)O1)Oc1ccc(Br)cc1 (single isomer, unassigned) [Example 4] | strong anti-proliferative synergy | 40 | 
5 | CC[C@@H](C)OC(=O)[C@@H](NP(=O)(OC[C@H]1OC[C@@H](n2ccc(N)nc2=O)O1)Oc1ccccc1)C(C)C (single isomer, unassigned) [Example 5] | strong anti-proliferative synergy | 46 | 
6 | CNC(=O)c1cc(Oc2ccc(NC(=O)Nc3ccc(Cl)c(C(F)(F)F)c3)c(F)c2)ccn1 [Regorafenib monohydrate, 4-[4-({[4-chloro-3-(trifluoromethyl)phenyl]carbamoyl}amino)-3-fluorophenoxy]-N-methylpyridine-2-carboxamide monohydrate] |  |  | solubility ([2]; acetone): sparingly soluble; solubility ([2]; acetonitrile): slightly soluble; solubility ([2]; aqueous media): practically insoluble; solubility ([2]; ethanol): slightly soluble; solubility ([2]; ethyl acetate): slightly soluble; solubility ([2]; methanol): slightly soluble
7 | CNC(=O)c1cc(Oc2ccc(NC(=O)Nc3ccc(Cl)c(C(F)(F)F)c3)cc2)ccn1.Cc1ccc(S(=O)(=O)O)cc1 [Sorafenib tosylate, 4-(4-{3-[4-Chloro-3(trifluoromethyl)phenyl]ureido}phenoxy) N-methylpyridine-2-carboxamide 4-methylbenzenesulfonate] |  |  | solubility ([2]; PEG 400): soluble; solubility ([2]; aqueous media): practically insoluble; solubility ([2]; ethanol): slightly soluble
